Results: US12239621B2, “Prevention of kidney injury induced by hemolytic reaction” (Niigata University, priority 2021, dated 2025)

Experiments:
[1] = test system: hemolysis model mice; conditions: cilastatin 400 mg/kg i.p. at 0, 3 and 6 h after phenylhydrazine, vs normal saline control group (FIG. 1)
Protocol: Phenylhydrazine (97% phenylhydrazine, Sigma-Aldrich Inc.) was dissolved in PBS in a concentration of 5 mg/ml to prepare a PBS solution, and the solution was intraperitoneally given to C57BL/6 mice (male, aged 10-12 weeks) so that the dose of phenylhydrazine was 1 mg/10 g, thereby constructing homolysis models.
To the hemolysis models, a) 400 mg/kg (diluted in 100 μL of normal saline) of cilastatin (Sigma-Aldrich Inc.), or b) 100 μL of normal saline was intraperitoneally administered at the time of phenylhydrazine dosing, 3 hours after the dosing, and 6 hours after the dosing. For each a) and b), 6 mice were used.
Then, for each individual in a) cilastatin-treated group and b) normal saline-treated group (control group), urine was pooled using a metabolic cage for 24 hours after phenylhydrazine dosing, and the obtained urine samples were collected.
The urine and serum were stored at −80° C. until analysis and measured for urinary KIM-1 and blood urea nitrogen. The measurements were conducted by Oriental Yeast Co., Ltd.

[2] = molecular target: binding between megalin and Hx (Rattus norvegicus, UniProt P98158); conditions: QCM, 1 mg cilastatin injected into 200 μL buffer in advance, rat Hx (FIG. 2-1)
Chain of binding between megalin and Hx (P98158 26-4660): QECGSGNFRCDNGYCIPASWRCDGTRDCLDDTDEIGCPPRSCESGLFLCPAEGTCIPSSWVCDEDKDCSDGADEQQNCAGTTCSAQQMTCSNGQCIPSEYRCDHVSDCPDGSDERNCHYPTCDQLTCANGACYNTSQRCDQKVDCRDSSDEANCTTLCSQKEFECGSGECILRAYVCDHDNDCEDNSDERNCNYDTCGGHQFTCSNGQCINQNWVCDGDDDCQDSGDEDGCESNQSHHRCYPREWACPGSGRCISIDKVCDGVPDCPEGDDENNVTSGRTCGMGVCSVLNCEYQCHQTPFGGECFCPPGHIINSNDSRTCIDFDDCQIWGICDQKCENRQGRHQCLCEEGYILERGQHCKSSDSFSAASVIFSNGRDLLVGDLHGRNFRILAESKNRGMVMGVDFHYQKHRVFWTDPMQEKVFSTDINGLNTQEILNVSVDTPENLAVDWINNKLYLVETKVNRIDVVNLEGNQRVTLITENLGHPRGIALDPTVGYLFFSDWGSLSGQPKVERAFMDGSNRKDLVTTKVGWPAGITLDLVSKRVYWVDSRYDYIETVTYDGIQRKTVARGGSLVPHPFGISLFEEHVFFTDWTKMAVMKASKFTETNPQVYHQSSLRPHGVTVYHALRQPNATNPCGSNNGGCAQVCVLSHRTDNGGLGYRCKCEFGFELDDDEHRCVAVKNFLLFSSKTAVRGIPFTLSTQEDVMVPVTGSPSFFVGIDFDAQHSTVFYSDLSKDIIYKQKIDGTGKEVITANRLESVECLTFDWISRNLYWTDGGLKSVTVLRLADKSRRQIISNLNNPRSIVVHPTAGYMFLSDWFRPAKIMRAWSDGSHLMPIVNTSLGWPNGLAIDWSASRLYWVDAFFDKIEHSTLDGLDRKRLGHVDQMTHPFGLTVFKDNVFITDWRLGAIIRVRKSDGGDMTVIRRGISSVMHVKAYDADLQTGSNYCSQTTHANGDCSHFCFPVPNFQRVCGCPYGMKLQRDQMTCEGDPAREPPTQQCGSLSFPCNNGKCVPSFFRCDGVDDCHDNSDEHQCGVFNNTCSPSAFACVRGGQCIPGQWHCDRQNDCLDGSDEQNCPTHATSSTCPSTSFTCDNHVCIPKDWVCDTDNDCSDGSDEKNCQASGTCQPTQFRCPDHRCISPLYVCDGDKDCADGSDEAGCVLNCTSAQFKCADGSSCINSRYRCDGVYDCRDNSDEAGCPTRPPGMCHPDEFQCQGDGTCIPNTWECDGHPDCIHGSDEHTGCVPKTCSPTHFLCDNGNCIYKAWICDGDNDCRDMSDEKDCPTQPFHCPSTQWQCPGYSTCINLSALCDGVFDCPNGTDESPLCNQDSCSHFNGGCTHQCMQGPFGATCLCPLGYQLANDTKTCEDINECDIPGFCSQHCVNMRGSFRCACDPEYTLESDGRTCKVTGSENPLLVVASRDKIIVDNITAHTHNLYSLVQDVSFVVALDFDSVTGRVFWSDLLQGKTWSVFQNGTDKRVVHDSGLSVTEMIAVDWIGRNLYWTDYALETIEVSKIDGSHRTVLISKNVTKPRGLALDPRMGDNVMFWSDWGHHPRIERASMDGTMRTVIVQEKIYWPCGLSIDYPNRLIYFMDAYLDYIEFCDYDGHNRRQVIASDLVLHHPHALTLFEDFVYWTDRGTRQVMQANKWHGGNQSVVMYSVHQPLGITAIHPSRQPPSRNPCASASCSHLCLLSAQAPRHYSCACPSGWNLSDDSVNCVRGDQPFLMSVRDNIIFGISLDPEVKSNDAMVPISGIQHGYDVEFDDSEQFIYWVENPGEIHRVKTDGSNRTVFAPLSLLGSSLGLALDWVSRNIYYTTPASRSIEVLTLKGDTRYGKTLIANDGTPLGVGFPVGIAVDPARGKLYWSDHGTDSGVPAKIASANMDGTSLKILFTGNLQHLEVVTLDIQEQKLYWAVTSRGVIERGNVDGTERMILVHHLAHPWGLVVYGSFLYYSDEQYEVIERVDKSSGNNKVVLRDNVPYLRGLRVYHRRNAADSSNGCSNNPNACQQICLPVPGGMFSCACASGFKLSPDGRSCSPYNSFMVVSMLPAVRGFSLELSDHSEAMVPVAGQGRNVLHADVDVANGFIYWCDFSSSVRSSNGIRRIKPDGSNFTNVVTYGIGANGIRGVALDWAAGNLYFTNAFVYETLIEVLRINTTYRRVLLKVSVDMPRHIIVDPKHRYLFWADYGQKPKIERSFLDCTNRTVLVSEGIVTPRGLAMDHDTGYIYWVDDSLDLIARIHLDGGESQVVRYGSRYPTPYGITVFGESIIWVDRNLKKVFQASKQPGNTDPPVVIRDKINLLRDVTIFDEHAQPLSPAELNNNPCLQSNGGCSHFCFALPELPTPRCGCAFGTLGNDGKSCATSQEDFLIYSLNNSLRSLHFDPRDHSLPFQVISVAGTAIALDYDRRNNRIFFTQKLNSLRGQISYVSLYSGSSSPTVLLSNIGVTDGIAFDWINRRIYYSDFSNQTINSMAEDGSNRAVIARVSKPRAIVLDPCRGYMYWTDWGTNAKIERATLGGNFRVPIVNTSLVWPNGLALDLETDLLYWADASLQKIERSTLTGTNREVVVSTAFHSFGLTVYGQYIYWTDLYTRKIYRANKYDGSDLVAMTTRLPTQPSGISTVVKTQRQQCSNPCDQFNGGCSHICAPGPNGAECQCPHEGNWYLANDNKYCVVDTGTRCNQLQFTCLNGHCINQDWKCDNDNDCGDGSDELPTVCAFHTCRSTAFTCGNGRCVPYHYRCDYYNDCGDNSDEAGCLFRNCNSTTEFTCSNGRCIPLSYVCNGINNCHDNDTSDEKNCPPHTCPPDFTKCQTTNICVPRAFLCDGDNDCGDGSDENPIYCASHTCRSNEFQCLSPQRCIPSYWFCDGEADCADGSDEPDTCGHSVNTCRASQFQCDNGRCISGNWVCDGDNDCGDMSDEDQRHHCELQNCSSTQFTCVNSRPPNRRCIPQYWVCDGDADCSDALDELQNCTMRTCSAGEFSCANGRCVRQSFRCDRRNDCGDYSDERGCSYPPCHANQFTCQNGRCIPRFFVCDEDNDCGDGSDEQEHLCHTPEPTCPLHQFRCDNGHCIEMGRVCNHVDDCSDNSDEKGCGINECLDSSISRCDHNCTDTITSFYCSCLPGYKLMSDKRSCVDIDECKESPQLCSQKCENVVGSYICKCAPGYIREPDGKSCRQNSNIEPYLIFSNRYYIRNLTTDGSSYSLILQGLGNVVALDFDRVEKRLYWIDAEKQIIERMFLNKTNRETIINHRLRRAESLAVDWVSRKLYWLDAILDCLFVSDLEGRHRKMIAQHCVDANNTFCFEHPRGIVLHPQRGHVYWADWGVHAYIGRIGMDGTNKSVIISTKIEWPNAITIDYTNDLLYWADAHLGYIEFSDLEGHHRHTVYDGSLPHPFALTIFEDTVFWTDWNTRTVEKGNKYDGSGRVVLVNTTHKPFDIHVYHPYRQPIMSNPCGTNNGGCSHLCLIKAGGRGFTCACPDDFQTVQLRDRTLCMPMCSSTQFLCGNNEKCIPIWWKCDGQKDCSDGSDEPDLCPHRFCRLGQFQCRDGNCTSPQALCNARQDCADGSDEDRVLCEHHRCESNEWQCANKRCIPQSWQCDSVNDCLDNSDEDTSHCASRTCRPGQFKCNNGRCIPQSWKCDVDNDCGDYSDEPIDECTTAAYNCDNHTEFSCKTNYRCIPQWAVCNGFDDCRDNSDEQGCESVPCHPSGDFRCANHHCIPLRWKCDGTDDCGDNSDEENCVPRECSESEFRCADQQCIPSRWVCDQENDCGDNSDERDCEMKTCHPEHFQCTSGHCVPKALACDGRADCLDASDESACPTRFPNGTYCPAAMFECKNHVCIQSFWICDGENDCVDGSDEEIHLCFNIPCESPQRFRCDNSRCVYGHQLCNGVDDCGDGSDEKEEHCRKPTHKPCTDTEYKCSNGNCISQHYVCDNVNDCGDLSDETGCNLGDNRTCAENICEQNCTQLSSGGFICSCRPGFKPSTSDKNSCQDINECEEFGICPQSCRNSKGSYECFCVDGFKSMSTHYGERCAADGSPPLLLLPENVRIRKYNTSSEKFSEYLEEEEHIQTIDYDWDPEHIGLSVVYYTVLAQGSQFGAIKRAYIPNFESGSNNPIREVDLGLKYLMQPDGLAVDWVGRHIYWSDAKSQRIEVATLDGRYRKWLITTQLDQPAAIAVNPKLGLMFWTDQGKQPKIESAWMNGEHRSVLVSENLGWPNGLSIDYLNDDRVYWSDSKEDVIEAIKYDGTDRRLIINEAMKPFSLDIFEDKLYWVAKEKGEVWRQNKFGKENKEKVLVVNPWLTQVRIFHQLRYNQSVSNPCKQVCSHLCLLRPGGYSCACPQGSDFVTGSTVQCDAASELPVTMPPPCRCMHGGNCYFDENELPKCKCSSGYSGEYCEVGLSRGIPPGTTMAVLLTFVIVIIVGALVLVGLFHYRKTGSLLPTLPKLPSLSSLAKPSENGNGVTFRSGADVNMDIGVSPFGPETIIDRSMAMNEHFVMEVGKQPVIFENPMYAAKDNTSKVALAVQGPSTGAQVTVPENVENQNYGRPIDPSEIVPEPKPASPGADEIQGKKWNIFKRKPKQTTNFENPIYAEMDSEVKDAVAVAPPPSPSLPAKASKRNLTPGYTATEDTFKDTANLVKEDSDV
Text: (§1) Binding specificity between megalin and each ligand (hemoglobin, α1M, Hx), and the possible binding inhibition by cilastatin were verified using the quartz crystal microbalance (QCM) method by reference to the method described in PTL 2.
(§2) For the ligands to be verified, hemoglobin (LifeSpan Biosciences Inc., Rat Hemoglobin Native Protein, LS-G11201) and Hx (Sino Biological Inc., Rat Hemopexin/HPX protein (His Tag 81025-R08H)) were used. […]
(§3) After each of the ligand- or BSA-immobilized quartz crystal sensor was mounted in the measurement instrument AFFINIX® Q8 (Initium Inc.) and the frequency was confirmed to be stable, 8 μL of a 0.1 mg/mL solution of megalin purified from Sprague-Dawley (SD) rat kidneys according to the method of Orlando et al. was injected and frequency was measured with time.
(§4) More specifically, the megalin solution was reacted to each of the ligand-immobilized quartz crystal sensors placed in a chamber with 200 μL of buffer, and frequency was measured.
(§5) Additionally, 1 mg of cilastatin was injected into buffer in advance, each of the ligand-immobilized quartz crystal sensors was mounted in the measurement instrument, and after the frequency was confirmed to be stable, the megalin solution was injected and frequency was measured with time, whereby the antagonistic activity of cilastatin against the binding of each ligand to megalin was analyzed. […]

[3] = molecular target: binding between megalin and hemoglobin (Rattus norvegicus, UniProt P98158); conditions: QCM, 1 mg cilastatin injected into 200 μL buffer in advance, rat hemoglobin (FIG. 2-1)
Chain of binding between megalin and hemoglobin (P98158 26-4660): as above
Text: as §1, §2, §3, §4, §5

[4] = molecular target: binding between α1M and megalin (Rattus norvegicus, UniProt P98158); conditions: QCM, 1 mg/200 μL cilastatin injected into buffer in advance, rat α1M (FIG. 2-2)
Chain of binding between α1M and megalin (P98158 26-4660): as above
Text: as §1

[5] = test system: mice (C57BL/6); conditions: cilastatin sodium 400 mg/kg i.p.
Protocol: Cilastatin was administered to mice and changes in concentrations of each ligand in urine were observed.
Five mice (male, aged 12 weeks C57BL/6) were intraperitoneally administered with 400 mg/kg (diluted in 100 μL, of normal saline, cilastatin-treated group) of cilastatin sodium (Sigma-Aldrich Japan K.K., C5743), and then put in a metabolic cage for 3 hours to collect urine, and the urines of 5 mice were combined. Additionally, 100 μL, of normal saline was administered to another group of 5 mice (control group), and the same experiment as above was conducted.
Proteins were isolated from the obtained urine samples by electrophoresis (SDS-polyacrylamide gel), reductively alkylated (using dithiothreitol and iodoacetamide), digested with trypsin, and the obtained peptides were extracted to obtain a solid.
To the obtained solid, 15 μL, of 0.3% formic acid (FA) was added, shaken for 5 minutes, sonicated for 1 minute, and shaken again for 5 minutes. The resultant mixture was spun down, applied to a membrane filter having a pore diameter of 0.45 μm (ULtra free-MC, HV, 0.45 μm, Millipore), centrifuged at 10,000 rpm for 5 minutes, and the sample passed through the filter was subjected to LCMS analysis.
The analysis method described in Ohara et al., 2018, PLoS One, vol. 13, 1, e0204160 was referred to. The analysis method is shown below.
AnaLyst® TF1.6 (AB SCIEX) was used as an LCMS/MS data acquisition and analysis software, and the obtained raw data were converted to a peak list file (mgf file format), whereby MS/MS Ion Search (MIS search) was conducted using Matrix Science Mascot daemon, Mascot server 2.2.1. The sequence data base used was Uniprot, Swiss-Prot. Significance threshold was set to 0.05 (false discovery rate of less than 5%), and the proteins having 2 or more peptides exceeding the identification standard were listed as identified proteins.
Raw data were acquired 2 times per sample at LCMS to cover the issue of analysis reproducibility at LCMS, and the peak list files obtained from the 2 runs were combined and analyzed using Mascot (Ohara et al., 2018, PLoS One, vol. 13, 1, e0204160).
To the proteins identified in common in 2 groups when compared, the spectral count method was used, which is a label-free comparative, semiquantitative analysis method utilizing a principle that a large number of peptide fragments will be identified in those expressed at high levels, resulting in the increase in the number of MS/MS. In other words, the proteins identified in both of the cilastatin-treated group and control group were calculated for an SpC/L ratio (spectral abundance factor: SAF) of the cilastatin-treated group/control group, and the proteins having an SpC/L ratio of 2.0 or more were listed as the proteins abundant in urine of the cilastatin-treated group.

[6] = test system: hemolysis model mice; conditions: cilastatin 400 mg/kg i.p. at 0, 3 and 6 h after phenylhydrazine, kidneys at 24 h, immunostaining (FIG. 5)
Protocol: Twenty-four hours after phenylhydrazine dosing, a portion containing a renal pedicle was sliced to 3 mm thickness from the right kidney and fixed with 4% paraformaldehyde phosphate buffer.
(§6) In line with Test Example 1, 1 mg/10 g of phenylhydrazine was given to C57BL/6 (male, aged 10-12 weeks), thereby constructing hemolysis model mice.
(§7) To the hemolysis models, a) 400 mg/kg (diluted in 100 μL, of normal saline) of cilastatin (Sigma-Aldrich Inc.), or b) 100 μL, of normal saline was intraperitoneally administered at the time of phenylhydrazine dosing, 3 hours after the dosing, and 6 hours after the dosing.

[7] = test system: hemolysis model mice; conditions: cilastatin 400 mg/kg i.p. at 0, 3 and 6 h after phenylhydrazine, kidneys at 24 h, immunostaining (FIG. 7)
Protocol: as §6, §7
In the present test example, thinly sliced fixed samples obtained from the remaining right kidney of the same animal were immunostained (500-fold diluted) using an anti-α1M antibody (Gene Tex: GTX101068).

[8] = mice, 3 h urine pooled from 5 mice, LCMS

For CC1(C)C[C@@H]1C(=O)N/C(=C\CCCCSC[C@H](N)C(=O)O)C(=O)O [cilastatin, (Z)-7-[[(R)-2-Amino-2-carboxyethyl]thio]-2-[[[(S)-2,2-dimethylcyclopropyl]carbonyl]amino]-2-heptenoic acid], which “urinary KIM-1” value ([1]; 24 h pooled urine) is on record?
The value was “lower in the cilastatin (CS)-treated group than the control group”.

And the blood urea nitrogen ([1]; serum at 24 h)?
Its blood urea nitrogen is “lower in the cilastatin (CS)-treated group than the control group”.

What about the “binding of megalin to Hx-immobilized quartz crystal sensor (drop of quartz crystal signals)” value [2] of the same molecule?
The value was “inhibited”.

What about the “binding of megalin to hemoglobin-immobilized quartz crystal sensor (drop of quartz crystal signals)” value [3] of the same molecule?
Its value is “inhibited”.

And the “binding of α1M to megalin-immobilized quartz crystal sensor (drop of quartz crystal signals)” value [4]?
Its value is “inhibited”.

What about the “uptake of α1M and Hx into kidney tissues” value ([5]; concluded from higher urinary concentrations in the cilastatin-treated group) of the same molecule?
The value was “inhibits”.

What about the “SpC/L ratio (cilastatin-treated group/control group), urinary Albumin” value [5, 8] of the same molecule?
Its value is 1.10.

What about the “SpC/L ratio (cilastatin-treated group/control group), urinary Clusterin” value [5, 8] of the same molecule?
The value was 0.73.

What about the “SpC/L ratio (cilastatin-treated group/control group), urinary Hx” value [5, 8] of the same molecule?
The value was 2.33.

What about the “SpC/L ratio (cilastatin-treated group/control group), urinary Transcobalamin-2” value [5, 8] of the same molecule?
The value was 2.33.

And the “SpC/L ratio (cilastatin-treated group/control group), urinary Transthyretin” value [5, 8]?
Its value is 1.00.

What about the “SpC/L ratio (cilastatin-treated group/control group), urinary Vitamin D-binding protein” value [5, 8] of the same molecule?
Its value is 0.80.

What about the “SpC/L ratio (cilastatin-treated group/control group), urinary α1M” value [5, 8] of the same molecule?
The value was 3.67.

What about the “amounts of hemoglobin taken up into kidney tissues” value [6] of the same molecule?
Its value is “reduced”.

What about the “amounts of α1M taken up into kidney tissues” value [7] of the same molecule?
Its value is “reduced”.
